Experimental data as given in patent US20240329063A1, “METHOD FOR EVALUATING RESIDUAL PLATELET THROMBOTIC POTENTIAL IN PATIENTS UNDERGOING ANTIPLATELET TREATMENT” (Centro Cardiologico Monzino S.P.A., priority 2021, published 2024).

Key:
aGPIIbIIIa [1] = conditions: clopidogrel 75 mg/day; 10 μM ADP; FIG. 1B
Experimental: (§1) The in vitro experiments were conducted on 10 healthy volunteers (n=5 males and n=5 females; average age 39±6) who had not taken antiplatelet medicaments in the 10 days before the blood sample was taken. The effect of clopidogrel on TF expression was evaluated on 193 patients suffering from coronary artery disease (CAD) with myocardial infarction with non-ST elevation. […] The clinical characteristics of the patients enrolled are set out in Table 1.
(§2) The exclusion criteria were: age >80 years, valvular heart disease, atrial fibrillation, thyrotoxicosis, history of haemorrhagic diathesis, platelet disorder or thrombocytopenia, anticoagulant or thrombolytic treatment. A subject with severe congenital P2Y12 deficiency (person) was also studied.
(§3) Whole blood (WB) samples were taken with a 19 gauge needle without venous stasis in tubes containing sodium citrate (0.129 M, 1/10 volume/volume) (Vacutainer, Becton Dickinson), discarding the first 4 ml. The blood samples were then processed within 15 minutes of sample-drawing. The WB was centrifuged (room temperature, without centrifuge brake) at 100 g for 10 minutes to isolate the platelets. The platelet-rich plasma (PRP) was transferred to a new test tube and analysed with the Sysmex XE-2100 Automated Hematology Analyzer to determine the platelet count, mean platelet volume (MPV), platelet distribution […] (PDW), platelet recovery (defined as the percentage of the platelet count in the PRP to 100% of the number of platelets in the WB), and leukocyte contamination. Only the platelet preparations free of leukocyte contamination and with platelet recovery >70% were used for the subsequent thrombin generation analysis.
(§4) Surface expression of platelet activation markers was analysed by flow cytometry as previously described (Brambilla M, et al., Arterioscler Thromb Vasc Biol. 2008;28 (5): 947-953). Briefly, the samples were incubated/labelled with saturating concentrations of mouse monoclonal antibodies recognizing human tissue factor (HTF1; Thermo Fisher), P-selectin (APC; Becton Dickinson), PAC1 (FITC; Becton Dickinson), CD36 (PE; Becton Dickinson) and CD154 (FITC; Becton Dickinson). For the analysis of intracellular expression of TF, the cells were fixed for 2 hours with 1% paraformaldehyde, permeabilised for 10 min with an 0.1% solution of Triton X-100 PBS, and labelled for 15 min at room temperature in the dark with saturating concentrations of anti-TF and CD61 antibodies (PerCP; Becton Dickinson).

P-selectin [2] = conditions: clopidogrel 75 mg/day; 10 μM ADP; all CAD patients, to the same extent regardless of the degree of VASP phosphorylation; FIG. 1C
Experimental: as §1, §2, §3, §4

TF [3] = conditions: clopidogrel 75 mg/day, FIG. 1A
Experimental: as §1, §2, §3, §4

TF [4] = test: ADP-induced TF expression on platelets, flow cytometry, in vitro antagonist inhibition curves; format: cell-based, human; conditions: ADP-stimulated platelets, spread as % CV, FIG. 1D-F
Experimental: (§5) The data obtained in patients without clopidogrel (No clopido) (n=39) are shown for comparison purposes. Panels C, D and E show the ADP concentration-response curves (black squares) and AR-C69931MX antagonist inhibition curves (white triangles) relating to TF, aGPIIbIIIa and P-selectin respectively. The EC50 of the agonist was calculated with a four-parameter logistic model, while the pA2s of the antagonist were calculated as described in Materials and Methods. The results are presented as percentage expression of the protein compared with baseline (s/b). The experiments were conducted at least three times. **p<0.01, ***p<0.001.
(§6) For the analysis of intracellular expression of TF, the cells were fixed for 2 hours with 1% paraformaldehyde, permeabilised for 10 min with an 0.1% solution of Triton X-100 PBS, and labelled for 15 min at room temperature in the dark with saturating concentrations of anti-TF and CD61 antibodies (PerCP; Becton Dickinson). […] All the data were analysed with Kaluza analysis software v1.5 (Beckman Coulter) and reported as percentage of positive cells or MFI (mean fluorescence intensity) of platelets positive to the activation marker.
(§7) A p-value of 0.05 was considered statistically significant. […] All curves shown are generated by informatics methods.

aGPIIbIIIa [5] = test: ADP-induced aGPIIbIIIa expression (PAC1 binding) on platelets, flow cytometry, in vitro antagonist inhibition curves; format: cell-based, human; conditions: ADP-stimulated platelets, spread as % CV, FIG. 1D-F
Experimental: as §5, §6, §7

P-selectin [6] = test: ADP-induced P-selectin expression on platelets, flow cytometry, in vitro antagonist inhibition curves; format: cell-based, human
Experimental: as §5, §6, §7

Structure (SMILES) | expression of activated glycoprotein IIbIIIa measured by the PAC1 bond (aGPIIbIIIa [1]) | P-selectin expression (P-selectin [2]) | inhibition of TF exposed to stimulation with 10 μM ADP, poor responders versus good responders (TF [3]; patients with PRI >60% compared with PRI <60%) | inhibition of TF exposed to stimulation with 10 μM ADP, poor responders versus untreated subjects (TF [3]; patients with PRI >60% compared with subjects not treated with clopidogrel) | pA2 for inhibition of TF expression (TF [4]) | pA2 for inhibition of aGPIIbIIIa expression (aGPIIbIIIa [5]) | pA2 for inhibition of P-selectin expression (P-selectin [6]; ADP-stimulated platelets, spread as % CV, FIG. 1D-F) | power (pA2) to inhibit P-selectin expression relative to that required to inhibit TF (P-selectin [6]; P-selectin versus TF) [times] | power (pA2) to inhibit P-selectin expression relative to that required to inhibit aGPIIbIIIa (P-selectin [6]; P-selectin versus aGPIIbIIIa) [times]
COC(=O)[C@H](c1ccccc1Cl)N1CCc2sccc2C1 [clopidogrel] | highest in the poor responders | significantly inhibited | significantly less than that measured in the good responders | not statistically different from that measured in the subjects not treated with clopidogrel | – | – | – | – | –
CSCCNc1nc(SCCC(F)(F)F)nc2c1ncn2[C@@H]1O[C@H](COP(=O)(O)OP(=O)(O)C(Cl)(Cl)P(=O)(O)O)[C@@H](O)[C@H]1O [AR-C69931MX] | – | – | – | – | 9.33±2.1 | 10.7±0.29 | 11.5±3.1 | 150 | 6
